Test results from publication PMC5841303, “In silico screening for human norovirus antivirals reveals a novel non-nucleoside inhibitor of the viral polymerase” (Scientific Reports, 2018).
Like-named read-outs stand apart in the source and are kept apart here.

Columns and labels:
[1] = target: human norovirus Sydney 2012 RdRp (Norovirus GII.4 (Norwalk virus, human norovirus), UniProt K4L8Z7); assay: Fluorescent de novo RdRp activity assay (PicoGreen, poly(C) template); format: biochemical; settings: for inhibition at 100 µM: read-out: inhibition of human norovirus RdRp activity, 100 µM; for inhibition of norovirus Sydney 2012 RdRp activity: 10 µM
Protocol: The 62 compounds identified in silico were screened for inhibition of norovirus RdRp activity using an in vitro fluorescent, de novo RdRp assay. Compounds were tested at fixed concentrations of 10 µM and 100 µM, and compared to mock treated samples containing the vehicle only (0.5% DMSO [vol/vol]) (Fig. 4A,B). […] For certain compounds, significant insolubility was observed, coupled with either inherent fluorescence quenching (positive y-axis values on Fig. 4A,B) or enhancement of the fluorescence signal (negative y-axis values).
The newly synthesised compounds, including the re-prepared hit 13 and some synthesis intermediates (Table 1), were initially evaluated on norovirus Sydney 2012 RdRp activity in vitro using a quantitative fluorescent assay. Compounds were tested at a fixed concentration of 10 μM and compared to the relative activity of mock treated samples.
Recombinant calicivirus RdRps (GenBank accession numbers) norovirus GII.Pe/GII.4 Sydney 2012 (KT239579), MNV GV CW1 (DQ285629), RHDV Czech V351 (KF594473.1), and SaV GI.1 Mc114 (AY237422) were expressed and purified as described previously[60],[61]. RdRp resistance mutants were generated using the QuikChange site-directed mutagenesis kit (Agilent Technologies, Santa Clara, CA, USA) and confirmed by Sanger sequencing.
(§1) Fluorescent RdRp activity assays were carried out as previously described[14],[62]. Briefly, RdRp activity was quantified by monitoring the formation of double-stranded RNA (dsRNA) from a single stranded homopolymeric template, poly(C) (Sigma Aldrich, St Louis, MO, USA), using the fluorescent dye PicoGreen (Life Technologies, Carlsbad, CA, USA). RdRp assays were performed in 384-well plates, and each reaction mixture contained 400 ng enzyme, 45 µM GTP, 10 ng/µL poly(C) RNA, 2.5 mM MnCl2, 5 mM dithiothreitol, (DTT), 0.01% bovine serum albumin (BSA), and 0.005% Tween 20 in 20 mM Tris-HCl, pH 7.5, with a final reaction volume of 25 µL. The previous published norovirus NNI NIC02 was used as a positive control. RdRps were incubated for 10 mins at 30 °C in the presence of the test compounds or the compound vehicle DMSO (0.5% vol/vol) before addition into the reaction mixture, which was then allowed to run 15 min at 30 °C then terminated with 10 mM EDTA, followed by PicoGreen staining and dsRNA quantitation. GraphPad Prism V6.05 (La Jolla, CA, USA) was used to plot the IC50 values. In cases where fluorescent enhancement was recorded for a compound instead of inhibition, a secondary gel-based polymerase activity assay was used as a counter-screen as described below, to exclude the possibility of RdRp activity enhancement (Supplementary Fig. S1). Primed elongation activity was examined in a gel-based assay as previously described[16],[63] using the RNA template (PE44-NoV, Fig. 4D). Gels were imaged using BioRad (Hercules, CA, U.SA) Geldoc Universal Hood II, running BioRad Image Lab software, V4.1, build 16. Antagonism was calculated using Compusyn software V1.0[59]. 54 and PPNDS (4:1 ratio) were tested alone and together against norovirus Sydney 2012 RdRp.

[2] = tested on: norovirus RdRp; assay: Counter-screen gel-shift RdRp assay (primed elongation of PE44-NoV template); format: biochemical, human norovirus; settings: fixed concentration of 100 µM
Protocol: In this assay, a 32 nucleotide RNA template (PE44-NoV) is extended to 44 nucleotides in the presence of an active RdRp[16]. […] Inhibition of primed elongation of the PE44-NoV template was examined at a fixed concentration of 100 µM (Fig. 4D). In the absence of inhibition (0.5% DMSO vehicle only) the RNA template was extended to 44 nucleotides (Fig. 4D), evidenced by an upward gel shift and the appearance of the second, higher band.
as §1

[3] = read-out: inhibition of human norovirus RdRp activity, 10 µM, initial screen of purchased compounds
[4] = initial screen of purchased compounds
[5] = secondary screen of newly synthesised compounds
[6] = read-out: inhibition of norovirus Sydney 2012 RdRp activity, 10 µM, secondary screen of newly synthesised compounds

SMILES	inhibition at 10 µM [1, 3] [%]	inhibition at 100 µM [1, 4] [%]	inhibition of norovirus Sydney 2012 RdRp activity [1, 5]	also measured
O=C(O)c1ccccc1-c1ccccc1C(=O)Nc1cccc(O)c1 [Compound 6]	> 25	> 50	–	–
CC(NC(=O)CCC(=O)Nc1ccccc1O)c1ccccc1 (stereo not drawn) [Compound 7]	> 25	> 50	–	–
O=C(C1=C(O)C(=O)N(Cc2ccco2)C1c1cccc(O)c1)c1ccc2c(c1)OCCO2 (stereo not drawn) [Compound 8]	> 25	> 25	–	–
COc1ccc(N2C(=O)c3ccc(C(=O)O)cc3C2=O)cc1NC(=O)c1ccccc1 [Compound 9]	> 25	> 50	–	–
Cc1ccc(NC(=O)CSc2n[nH]c(-c3ccccc3O)n2)c(C)c1 [Compound 10]	> 25	> 25	–	–
C/C(=N\NC(=O)c1ccccc1O)c1ccc(O)cc1O [Compound 12]	> 25	> 25	–	–
O=C1NC(=O)/C(=C/c2ccc(-c3ccccc3)o2)S1 [Compound 18a]	–	–	lacked RdRp inhibitory activity	–
Cc1ccccc1-c1ccc(/C=C2\SC(=O)NC2=O)o1 [Compound 18c]	–	–	lacked RdRp inhibitory activity	–
O=C(CN1C(=O)S/C(=C\c2ccc(-c3ccccc3)o2)C1=O)N1CCOCC1 [Compound 23a]	–	–	complete loss of activity	–
COC(=O)c1ccc(-c2ccc(/C=C3\SC(=O)N(CC(=O)N4CCOCC4)C3=O)o2)cc1 [Compound 23b]	–	–	complete loss of activity	–
Cc1ccccc1-c1ccc(/C=C2\SC(=O)N(CC(=O)N3CCOCC3)C2=O)o1 [Compound 23c]	–	–	complete loss of activity	–
O=C(CN1C(=O)S/C(=C\c2ccc(-c3ccccc3)o2)C1=O)N1CCCCC1 [Compound 24a]	–	–	loss of inhibitory activity	–
COC(=O)c1ccc(-c2ccc(/C=C3\SC(=O)N(CC(=O)N4CCCCC4)C3=O)o2)cc1 [Compound 24b]	–	–	–	inhibition at 10 µM [1, 6]: 60%; inhibition of primed elongation activity (gel-shift) [2]: no appreciable effect
Cc1ccccc1-c1ccc(/C=C2\SC(=O)N(CC(=O)N3CCCCC3)C2=O)o1 [Compound 24c]	–	–	loss of inhibitory activity	–
COC(=O)c1ccc(-c2ccc(/C=C3\SC(=O)N(CC(=O)N4CCCCC4)C3=O)o2)c(C)c1 [Compound 24d]	–	–	–	inhibition at 10 µM [1, 6]: 25%
O=C1NC(=O)/C(=C/c2ccc(-c3ccc(C(=O)O)cc3)o2)S1 [Compound 27]	–	–	lacked RdRp inhibitory activity	–
O=C(O)c1ccc(-c2ccc(/C=C3\SC(=O)N(CC(=O)N4CCOCC4)C3=O)o2)cc1 [Compound 28]	–	–	–	inhibition at 10 µM [1, 6]: ~50%
COC(=O)c1ccc(-c2ccc(/C=C3\SC(=O)N(CC(=O)N4CCOCC4)C3=O)o2)c(C)c1 [Compound 39d]	–	–	complete loss of activity	–
Cc1cc(C(=O)O)ccc1-c1ccc(/C=C2\SC(=O)N(CC(=O)N3CCCCC3)C2=O)o1 [Compound 40e]	–	–	abolished the activity	–
Cc1ccc(N2NC(=O)/C(=C\c3ccc(-c4ccc(S(=O)(=O)Nc5ccccc5)cc4)o3)C2=O)cc1 [Compound 55]	–	–	–	inhibition of primed elongation activity (gel-shift) [2]: minimal inhibition
